Values of other authors as cited in US7709454B2, “Methods and compositions for inhibiting tumorigenesis” (New York University, priority 1997, dated 2010).
pIC50: −log10 of the molar value.

Experiments:
[1] = tested on: MMTV-TGFa/neu transgenic Mice/mammary tumors; settings: 40 mg/kg/d; cited from earlier work
[2] = cell type not given; cited from earlier work
[3] = tested on: MMTV-v-H-RAS transgenic mice/Mammary, salivary Carcinoma; settings: cited from earlier work
[4] = tested on: MMTV-N-RAS^N transgenic Mice/lymphoid and mammary tumors; settings: 40 mg/kg/d; cited from earlier work

CC[C@H](C)[C@@H](CO[C@@H](Cc1ccccc1)C(=O)N[C@@H](CCS(C)(=O)=O)C(=O)OC(C)C)NC[C@@H](N)CS [L-744,832]
tumor mean growth rate in the presence of the Ftase inhibitor [1]: −7.4 vs 19 mm3/day | pIC50 [2]: 5.00 to 6.00 | tumor mean growth rate in the presence of the Ftase inhibitor ([3]; 10-40 mg/kg/d): −5.4 vs 16.7 mm3/day | tumor response ([3]; mammary and salivary carcinomas in MMTV-v-Ha-Ras mice): induced regression | tumor mean growth rate in the presence of the Ftase inhibitor [4]: −0.7 vs 28.3 mm3/day
